Tests used:
MDA-MB-435 = experiment: NCI human tumor cell panel: MDA-MB-435 (Breast Cancer); assay type: cell-based; settings: MDA-MB-435, Breast Cancer
DU-145 = experiment: NCI human tumor cell panel: DU-145 (Prostate Cancer); assay type: cell-based; settings: DU-145, Prostate Cancer
SF-268 = experiment: NCI human tumor cell panel: SF-268 (CNS Cancer); assay type: cell-based; settings: SF-268, CNS Cancer
SK-MEL-5 = experiment: NCI human tumor cell panel: SK-MEL-5 (Melanoma); assay type: cell-based; settings: SK-MEL-5, Melanoma
NCI-H322M = experiment: cells; assay type: cell-based; settings: Homo sapiens, Non-Small Cell Lung Cancer
SNB-19 = experiment: NCI human tumor cell panel: SNB-19 (CNS Cancer); assay type: cell-based; settings: SNB-19, CNS Cancer
SK-MEL-2 = experiment: NCI human tumor cell panel: SK-MEL-2 (Melanoma); assay type: cell-based; settings: SK-MEL-2, Melanoma
SF-539 = experiment: NCI human tumor cell panel: SF-539 (CNS Cancer); assay type: cell-based; settings: SF-539, CNS Cancer
SK-MEL-28 = experiment: NCI human tumor cell panel: SK-MEL-28 (Melanoma); assay type: cell-based; settings: SK-MEL-28, Melanoma
HCC-2998 = experiment: NCI human tumor cell panel: HCC-2998 (Colon Cancer); assay type: cell-based; settings: HCC-2998, Colon Cancer
NCI-H522 = experiment: NCI human tumor cell panel: NCI-H522 (Non-Small Cell Lung Cancer)
T-47D = experiment: NCI human tumor cell panel: T-47D (Breast Cancer); assay type: cell-based; settings: T47D, Breast Cancer
U251 = experiment: NCI human tumor cell panel: U251 (CNS Cancer); assay type: cell-based; settings: U-251, U251, CNS Cancer
M14 = experiment: NCI human tumor cell panel: M14 (Melanoma); assay type: cell-based; settings: M14, Melanoma
MDA-MB-231/ATCC = experiment: NCI human tumor cell panel: MDA-MB-231/ATCC (Breast Cancer); assay type: cell-based; settings: Homo sapiens, MDA-MB-231, MDA-MB-231/ATCC, Breast Cancer
CCRF-CEM = experiment: NCI human tumor cell panel: CCRF-CEM (Leukemia); assay type: cell-based; settings: Leukemia
RPMI-8226 = experiment: NCI human tumor cell panel: RPMI-8226 (Leukemia); assay type: cell-based; settings: RPMI-8226, Leukemia
NCI-H226 = experiment: NCI human tumor cell panel: NCI-H226 (Non-Small Cell Lung Cancer); assay type: cell-based; settings: NCI-H226, Non-Small Cell Lung Cancer
MDA-N = experiment: NCI human tumor cell panel: MDA-N (Breast Cancer); assay type: cell-based; settings: Breast Cancer
COLO 205 = experiment: NCI human tumor cell panel: COLO 205 (Colon Cancer); assay type: cell-based; settings: COLO 205, Colon Cancer
RXF-393 = experiment: NCI human tumor cell panel: RXF-393 (Renal Cancer); assay type: cell-based; settings: RXF-393, Renal Cancer
HL-60(TB) = experiment: NCI human tumor cell panel: HL-60(TB) (Leukemia); assay type: cell-based; settings: Leukemia
OVCAR-3 = experiment: NCI human tumor cell panel: OVCAR-3 (Ovarian Cancer); assay type: cell-based; settings: OVCAR-3, Ovarian Cancer
UO-31 = experiment: NCI human tumor cell panel: UO-31 (Renal Cancer); assay type: cell-based; settings: UO-31, Renal Cancer
MCF7 = experiment: NCI human tumor cell panel: MCF7 (Breast Cancer); assay type: cell-based; settings: MCF7, Breast Cancer
CAKI-1 = experiment: NCI human tumor cell panel: CAKI-1 (Renal Cancer); assay type: cell-based; settings: CAKI-1, Renal Cancer
[1] = read-out: Log10 GI50 (converted)
[2] = read-out: Log10 TGI (converted)

O=Cc1ccc(-c2ccc(-c3ccc(C=O)[se]3)[se]2)[se]1 [NSC 675245]
GI50 (MDA-MB-435; [1]): > 100 µM | IC (TGI) (MDA-MB-435; [2]): > 100 µM | GI50 (DU-145; [1]): > 100 µM | IC (TGI) (DU-145; [2]): > 100 µM | GI50 (SF-268; [1]): > 100 µM | IC (TGI) (SF-268; [2]): > 100 µM | GI50 (SK-MEL-5; [1]): 72.4 µM | IC (TGI) (SK-MEL-5; [2]): > 100 µM | GI50 (NCI-H322M; [1]): > 100 µM | IC (TGI) (NCI-H322M; [2]): > 100 µM | GI50 (SNB-19; [1]): 29.5 µM | IC (TGI) (SNB-19; [2]): > 100 µM | GI50 (SK-MEL-2; [1]): > 100 µM | IC (TGI) (SK-MEL-2; [2]): > 100 µM | GI50 (SF-539; [1]): > 100 µM | IC (TGI) (SF-539; [2]): > 100 µM | GI50 (SK-MEL-28; [1]): > 100 µM | IC (TGI) (SK-MEL-28; [2]): > 100 µM | GI50 (HCC-2998; [1]): 4.79 µM | IC (TGI) (HCC-2998; [2]): > 100 µM | GI50 (NCI-H522; NCI-H522, read-out: Log10 GI50 (converted)): 21.9 µM | IC (TGI) (NCI-H522; NCI-H522, read-out: Log10 TGI): 45.7 µM | GI50 (T-47D; [1]): 15.8 µM | IC (TGI) (T-47D; [2]): > 100 µM | GI50 (U251; [1]): 1.05 µM | IC (TGI) (U251; [2]): > 100 µM | GI50 (M14; [1]): > 100 µM | IC (TGI) (M14; [2]): > 100 µM | GI50 (MDA-MB-231/ATCC; [1]): > 100 µM | IC (TGI) (MDA-MB-231/ATCC; [2]): > 100 µM | GI50 (CCRF-CEM; [1]): > 100 µM | IC (TGI) (CCRF-CEM; [2]): > 100 µM | GI50 (RPMI-8226; [1]): > 100 µM | IC (TGI) (RPMI-8226; read-out: Log10 TGI): > 100 µM | GI50 (NCI-H226; [1]): 0.977 µM | IC (TGI) (NCI-H226; [2]): 3.63 µM | GI50 (MDA-N; [1]): > 100 µM | IC (TGI) (MDA-N; [2]): > 100 µM | GI50 (COLO 205; [1]): > 100 µM | IC (TGI) (COLO 205; [2]): > 100 µM | GI50 (RXF-393; [1]): 12 µM | IC (TGI) (RXF-393; [2]): > 100 µM | GI50 (HL-60(TB); [1]): > 100 µM | IC (TGI) (HL-60(TB); read-out: Log10 TGI): > 100 µM | GI50 (OVCAR-3; [1]): 0.389 µM | IC (TGI) (OVCAR-3; [2]): > 100 µM | GI50 (UO-31; [1]): > 100 µM | IC (TGI) (UO-31; [2]): > 100 µM | GI50 (MCF7; [1]): 1.48 µM | IC (TGI) (MCF7; [2]): > 100 µM | GI50 (CAKI-1; [1]): 0.269 µM | IC (TGI) (CAKI-1; [2]): 0.933 µM
